Measured values: ChEMBL document CHEMBL5653631, “A Potent and Selective ULK1 Inhibitor Suppresses Autophagy and Sensitizes Cancer Cells to Nutrient Stress” (iScience, 2018)
One block for each compound: values may come before it.

Key:
Homo sapiens = species on record: Homo sapiens; assay: Inhibition of human recombinant KHS1 at 500 nM related to control ULK1
[1] = target: Serine/threonine-protein kinase SBK1 (Homo sapiens) (UniProt Q52WX2); assay: Inhibition of human recombinant SBK1 at 500 nM in presence of ATP by radiometric assay relative to control
[2] = target: Rhodopsin kinase GRK7 (Homo sapiens) (UniProt Q8WTQ7); assay: Inhibition of human recombinant GPRK7 at 500 nM related to control ULK1
[3] = target: Serine/threonine-protein kinase 24 (Homo sapiens) (UniProt Q9Y6E0); assay: Inhibition of human recombinant MST3 at 500 nM in presence of ATP by radiometric assay relative to control
[4] = target: T1, Muscle, skeletal receptor tyrosine-protein kinase (Homo sapiens) (UniProt O15146); assay: Inhibition of human recombinant MUSK at 500 nM in presence of ATP by radiometric assay relative to control
T1 sequence (whole entry): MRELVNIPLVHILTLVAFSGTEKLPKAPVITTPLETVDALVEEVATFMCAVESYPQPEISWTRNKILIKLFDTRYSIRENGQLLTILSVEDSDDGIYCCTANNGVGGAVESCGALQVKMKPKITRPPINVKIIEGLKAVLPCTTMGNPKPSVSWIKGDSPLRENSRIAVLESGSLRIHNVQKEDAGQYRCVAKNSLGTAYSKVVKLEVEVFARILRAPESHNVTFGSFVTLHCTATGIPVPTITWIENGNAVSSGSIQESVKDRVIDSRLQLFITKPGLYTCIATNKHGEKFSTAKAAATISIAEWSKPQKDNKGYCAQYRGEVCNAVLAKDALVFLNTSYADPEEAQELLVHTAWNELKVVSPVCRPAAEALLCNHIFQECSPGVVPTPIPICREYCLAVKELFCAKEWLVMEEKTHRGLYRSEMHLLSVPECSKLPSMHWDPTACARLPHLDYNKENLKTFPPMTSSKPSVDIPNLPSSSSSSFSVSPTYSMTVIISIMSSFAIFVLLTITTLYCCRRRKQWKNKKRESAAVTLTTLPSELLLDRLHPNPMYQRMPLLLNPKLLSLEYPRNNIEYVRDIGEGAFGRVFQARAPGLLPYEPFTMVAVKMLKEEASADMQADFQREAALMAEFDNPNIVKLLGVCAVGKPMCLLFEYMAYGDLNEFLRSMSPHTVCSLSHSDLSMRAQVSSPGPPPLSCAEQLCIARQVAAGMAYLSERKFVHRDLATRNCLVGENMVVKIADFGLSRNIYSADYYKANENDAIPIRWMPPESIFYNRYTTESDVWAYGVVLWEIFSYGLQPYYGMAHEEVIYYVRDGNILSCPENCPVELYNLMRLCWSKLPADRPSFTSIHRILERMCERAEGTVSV

[5] = target: Cyclin-dependent kinase 1 (Homo sapiens) (UniProt P06493); assay: Inhibition of human recombinant CDC2 at 15 nM related to control ULK1
[6] = target: Insulin-like growth factor 1 receptor (Homo sapiens) (UniProt P08069); assay: Inhibition of human recombinant IGF1R at 15 nM related to control ULK1
[7] = target: T2, Myotonin-protein kinase (Homo sapiens) (UniProt Q09013); assay: Inhibition of human recombinant DMPK1 at 15 nM related to control ULK1
T2 sequence (whole entry): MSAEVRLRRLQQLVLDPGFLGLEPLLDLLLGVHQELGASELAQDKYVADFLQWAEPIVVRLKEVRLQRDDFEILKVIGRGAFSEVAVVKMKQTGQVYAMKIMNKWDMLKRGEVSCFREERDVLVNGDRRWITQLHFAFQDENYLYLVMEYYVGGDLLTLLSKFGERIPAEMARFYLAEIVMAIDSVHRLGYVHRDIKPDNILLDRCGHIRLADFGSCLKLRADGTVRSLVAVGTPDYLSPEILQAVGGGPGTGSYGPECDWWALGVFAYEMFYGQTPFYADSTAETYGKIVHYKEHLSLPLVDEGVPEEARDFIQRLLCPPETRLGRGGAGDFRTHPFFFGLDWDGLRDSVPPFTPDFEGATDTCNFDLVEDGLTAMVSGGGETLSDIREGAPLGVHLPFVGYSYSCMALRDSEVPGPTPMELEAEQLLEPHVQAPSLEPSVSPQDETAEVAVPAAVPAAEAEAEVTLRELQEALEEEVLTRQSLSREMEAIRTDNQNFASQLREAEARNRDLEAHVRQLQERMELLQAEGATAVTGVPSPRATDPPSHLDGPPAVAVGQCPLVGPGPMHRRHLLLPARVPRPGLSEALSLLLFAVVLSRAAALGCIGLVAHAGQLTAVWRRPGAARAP

[8] = target: T3, Testis-specific serine/threonine-protein kinase 1 (Homo sapiens) (UniProt Q9BXA7); assay: Inhibition of human recombinant TSSK1 at 15 nM related to control ULK1
T3 sequence (whole entry): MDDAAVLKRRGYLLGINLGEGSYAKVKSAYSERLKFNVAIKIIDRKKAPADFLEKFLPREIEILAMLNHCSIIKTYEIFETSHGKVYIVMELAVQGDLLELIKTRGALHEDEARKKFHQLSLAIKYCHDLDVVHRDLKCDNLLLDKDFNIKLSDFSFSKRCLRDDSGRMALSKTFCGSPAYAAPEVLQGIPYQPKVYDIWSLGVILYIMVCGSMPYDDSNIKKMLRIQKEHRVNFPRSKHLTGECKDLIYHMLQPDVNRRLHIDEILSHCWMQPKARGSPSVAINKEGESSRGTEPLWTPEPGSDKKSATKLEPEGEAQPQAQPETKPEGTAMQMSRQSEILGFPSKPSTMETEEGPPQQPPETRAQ

[9] = target: Protein kinase C beta type (Homo sapiens) (UniProt P05771); assay: Inhibition of human recombinant PKCb at 15 nM related to control ULK1
[10] = target: Dual specificity protein kinase CLK3 (Homo sapiens) (UniProt P49761); assay: Inhibition of human recombinant CLK3 at 15 nM related to control ULK1
[11] = target: Calcium/calmodulin-dependent protein kinase type 1G (Homo sapiens) (UniProt Q96NX5); assay: Inhibition of human recombinant CaMK1g at 15 nM related to control ULK1
[12] = target: Tyrosine-protein kinase Tec (Homo sapiens) (UniProt P42680); assay: Inhibition of human recombinant TEC at 40 nM related to control ULK1
[13] = target: Mitogen-activated protein kinase kinase kinase kinase 4 (Homo sapiens) (UniProt O95819); assay: Inhibition of human recombinant HGK at 40 nM related to control ULK1
Chain of Mitogen-activated protein kinase kinase kinase kinase 4 (Homo sapiens) (O95819 2-1239 limits assumed): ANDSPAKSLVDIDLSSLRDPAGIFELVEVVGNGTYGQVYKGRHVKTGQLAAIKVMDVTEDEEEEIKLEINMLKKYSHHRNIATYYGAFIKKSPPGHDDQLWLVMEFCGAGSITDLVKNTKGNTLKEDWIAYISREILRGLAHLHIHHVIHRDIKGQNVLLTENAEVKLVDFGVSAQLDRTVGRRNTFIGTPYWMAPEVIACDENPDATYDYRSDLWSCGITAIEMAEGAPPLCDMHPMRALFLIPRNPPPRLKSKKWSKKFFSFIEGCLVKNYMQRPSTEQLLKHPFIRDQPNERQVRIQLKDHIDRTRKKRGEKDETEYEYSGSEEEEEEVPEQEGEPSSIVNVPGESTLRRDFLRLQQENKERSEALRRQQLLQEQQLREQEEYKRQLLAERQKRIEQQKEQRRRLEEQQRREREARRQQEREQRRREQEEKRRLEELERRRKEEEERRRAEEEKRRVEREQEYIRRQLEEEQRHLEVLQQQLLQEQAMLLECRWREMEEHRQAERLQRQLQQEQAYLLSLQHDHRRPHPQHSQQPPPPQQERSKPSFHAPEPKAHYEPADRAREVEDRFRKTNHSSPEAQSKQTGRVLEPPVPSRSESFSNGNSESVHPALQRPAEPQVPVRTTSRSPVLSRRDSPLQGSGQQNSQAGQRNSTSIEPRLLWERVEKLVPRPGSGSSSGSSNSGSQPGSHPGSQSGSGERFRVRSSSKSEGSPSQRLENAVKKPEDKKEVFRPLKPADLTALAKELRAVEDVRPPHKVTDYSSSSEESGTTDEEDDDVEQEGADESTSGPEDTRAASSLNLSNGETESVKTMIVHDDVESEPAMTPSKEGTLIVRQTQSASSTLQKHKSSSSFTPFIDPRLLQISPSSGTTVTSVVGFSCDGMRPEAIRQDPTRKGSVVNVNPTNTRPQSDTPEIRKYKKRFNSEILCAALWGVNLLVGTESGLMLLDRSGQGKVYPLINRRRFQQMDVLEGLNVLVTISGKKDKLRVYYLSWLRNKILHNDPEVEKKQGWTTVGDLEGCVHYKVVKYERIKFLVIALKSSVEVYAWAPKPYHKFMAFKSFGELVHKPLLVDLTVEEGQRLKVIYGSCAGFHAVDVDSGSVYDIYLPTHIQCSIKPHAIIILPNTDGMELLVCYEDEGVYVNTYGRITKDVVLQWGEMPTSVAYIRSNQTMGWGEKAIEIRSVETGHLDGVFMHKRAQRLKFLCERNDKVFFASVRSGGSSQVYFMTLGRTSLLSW

Chain of Cyclin-dependent kinase 1 (Homo sapiens) (P06493 whole entry, looked up): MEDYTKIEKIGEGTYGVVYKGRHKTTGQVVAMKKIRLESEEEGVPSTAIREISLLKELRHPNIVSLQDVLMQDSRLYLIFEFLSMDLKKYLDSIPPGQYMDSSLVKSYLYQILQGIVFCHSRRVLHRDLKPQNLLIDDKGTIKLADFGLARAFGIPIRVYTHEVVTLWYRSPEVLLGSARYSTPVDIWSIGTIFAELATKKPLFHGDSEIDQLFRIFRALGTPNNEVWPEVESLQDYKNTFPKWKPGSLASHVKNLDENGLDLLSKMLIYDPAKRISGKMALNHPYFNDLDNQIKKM
Chain of Serine/threonine-protein kinase 24 (Homo sapiens) (Q9Y6E0 whole entry, looked up): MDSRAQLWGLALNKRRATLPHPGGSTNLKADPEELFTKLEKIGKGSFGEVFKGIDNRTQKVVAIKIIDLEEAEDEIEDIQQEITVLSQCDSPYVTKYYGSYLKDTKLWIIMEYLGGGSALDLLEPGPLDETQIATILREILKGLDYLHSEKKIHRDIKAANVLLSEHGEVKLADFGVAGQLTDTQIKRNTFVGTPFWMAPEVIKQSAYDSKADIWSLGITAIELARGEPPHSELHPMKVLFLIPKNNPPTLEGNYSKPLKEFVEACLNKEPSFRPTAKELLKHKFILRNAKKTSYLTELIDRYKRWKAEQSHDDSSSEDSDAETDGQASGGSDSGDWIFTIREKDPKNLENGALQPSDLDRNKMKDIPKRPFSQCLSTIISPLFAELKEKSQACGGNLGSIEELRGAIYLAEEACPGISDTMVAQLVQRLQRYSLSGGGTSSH
Chain of Calcium/calmodulin-dependent protein kinase type 1G (Homo sapiens) (Q96NX5 whole entry): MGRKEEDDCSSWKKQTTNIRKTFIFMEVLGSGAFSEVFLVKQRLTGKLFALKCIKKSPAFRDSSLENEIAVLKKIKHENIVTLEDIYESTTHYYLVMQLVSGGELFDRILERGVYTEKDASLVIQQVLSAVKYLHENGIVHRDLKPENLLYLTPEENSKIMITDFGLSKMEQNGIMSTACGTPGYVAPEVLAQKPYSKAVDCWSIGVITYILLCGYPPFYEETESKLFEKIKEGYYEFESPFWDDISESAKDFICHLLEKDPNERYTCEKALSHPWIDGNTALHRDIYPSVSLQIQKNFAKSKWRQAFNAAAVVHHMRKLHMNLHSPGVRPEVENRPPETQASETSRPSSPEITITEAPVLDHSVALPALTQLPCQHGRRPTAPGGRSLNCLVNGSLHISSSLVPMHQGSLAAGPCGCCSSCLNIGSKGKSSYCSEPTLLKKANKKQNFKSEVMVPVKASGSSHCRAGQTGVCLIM
Chain of Dual specificity protein kinase CLK3 (Homo sapiens) (P49761 whole entry, looked up): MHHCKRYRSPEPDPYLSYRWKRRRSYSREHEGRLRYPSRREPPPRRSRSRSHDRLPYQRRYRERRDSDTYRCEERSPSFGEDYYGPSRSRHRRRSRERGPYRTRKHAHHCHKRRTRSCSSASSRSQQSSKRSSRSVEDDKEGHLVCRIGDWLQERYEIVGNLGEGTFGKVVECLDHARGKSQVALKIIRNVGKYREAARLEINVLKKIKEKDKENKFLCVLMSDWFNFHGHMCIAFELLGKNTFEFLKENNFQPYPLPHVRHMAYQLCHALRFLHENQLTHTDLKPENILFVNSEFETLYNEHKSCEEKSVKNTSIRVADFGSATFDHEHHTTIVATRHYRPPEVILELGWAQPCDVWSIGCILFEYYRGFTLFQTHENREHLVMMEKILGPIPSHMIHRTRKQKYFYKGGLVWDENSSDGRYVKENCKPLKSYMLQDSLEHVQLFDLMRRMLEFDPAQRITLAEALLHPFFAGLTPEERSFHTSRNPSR
Chain of Insulin-like growth factor 1 receptor (Homo sapiens) (P08069 31-736 limits assumed): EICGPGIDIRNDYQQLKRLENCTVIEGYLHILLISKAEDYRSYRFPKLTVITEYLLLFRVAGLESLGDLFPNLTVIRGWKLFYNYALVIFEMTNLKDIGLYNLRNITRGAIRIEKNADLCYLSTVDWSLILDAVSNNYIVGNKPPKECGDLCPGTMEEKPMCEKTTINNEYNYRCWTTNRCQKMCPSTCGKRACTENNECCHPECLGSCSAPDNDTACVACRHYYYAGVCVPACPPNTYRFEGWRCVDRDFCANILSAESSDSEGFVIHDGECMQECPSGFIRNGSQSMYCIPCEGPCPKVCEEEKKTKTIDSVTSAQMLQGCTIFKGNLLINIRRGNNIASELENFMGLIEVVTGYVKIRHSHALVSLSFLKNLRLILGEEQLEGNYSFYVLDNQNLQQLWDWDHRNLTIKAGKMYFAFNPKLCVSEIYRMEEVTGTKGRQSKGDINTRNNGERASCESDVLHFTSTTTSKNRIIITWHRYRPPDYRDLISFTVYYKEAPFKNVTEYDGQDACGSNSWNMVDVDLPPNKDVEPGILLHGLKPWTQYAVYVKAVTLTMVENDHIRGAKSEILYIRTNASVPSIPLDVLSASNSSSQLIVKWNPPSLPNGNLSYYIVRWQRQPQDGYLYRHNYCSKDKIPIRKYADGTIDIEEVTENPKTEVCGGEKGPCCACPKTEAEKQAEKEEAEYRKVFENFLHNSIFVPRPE
Chain of Insulin-like growth factor 1 receptor (Homo sapiens) (P08069 741-1367 limits assumed): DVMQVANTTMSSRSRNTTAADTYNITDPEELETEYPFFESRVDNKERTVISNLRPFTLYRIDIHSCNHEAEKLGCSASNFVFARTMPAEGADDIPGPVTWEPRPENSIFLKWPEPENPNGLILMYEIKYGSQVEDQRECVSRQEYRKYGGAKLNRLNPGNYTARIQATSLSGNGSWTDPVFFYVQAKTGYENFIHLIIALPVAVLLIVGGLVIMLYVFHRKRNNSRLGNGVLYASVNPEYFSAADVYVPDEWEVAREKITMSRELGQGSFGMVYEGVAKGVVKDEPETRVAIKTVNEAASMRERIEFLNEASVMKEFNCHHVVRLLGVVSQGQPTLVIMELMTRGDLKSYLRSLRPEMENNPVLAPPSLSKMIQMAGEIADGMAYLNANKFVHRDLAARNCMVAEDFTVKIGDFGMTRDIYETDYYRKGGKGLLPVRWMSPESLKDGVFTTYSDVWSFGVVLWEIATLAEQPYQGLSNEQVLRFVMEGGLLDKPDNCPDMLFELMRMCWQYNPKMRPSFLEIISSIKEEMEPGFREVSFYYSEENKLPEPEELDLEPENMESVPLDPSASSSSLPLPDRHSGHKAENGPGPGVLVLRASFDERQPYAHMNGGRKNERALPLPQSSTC
Chain of Protein kinase C beta type (Homo sapiens) (P05771 2-671 limits assumed): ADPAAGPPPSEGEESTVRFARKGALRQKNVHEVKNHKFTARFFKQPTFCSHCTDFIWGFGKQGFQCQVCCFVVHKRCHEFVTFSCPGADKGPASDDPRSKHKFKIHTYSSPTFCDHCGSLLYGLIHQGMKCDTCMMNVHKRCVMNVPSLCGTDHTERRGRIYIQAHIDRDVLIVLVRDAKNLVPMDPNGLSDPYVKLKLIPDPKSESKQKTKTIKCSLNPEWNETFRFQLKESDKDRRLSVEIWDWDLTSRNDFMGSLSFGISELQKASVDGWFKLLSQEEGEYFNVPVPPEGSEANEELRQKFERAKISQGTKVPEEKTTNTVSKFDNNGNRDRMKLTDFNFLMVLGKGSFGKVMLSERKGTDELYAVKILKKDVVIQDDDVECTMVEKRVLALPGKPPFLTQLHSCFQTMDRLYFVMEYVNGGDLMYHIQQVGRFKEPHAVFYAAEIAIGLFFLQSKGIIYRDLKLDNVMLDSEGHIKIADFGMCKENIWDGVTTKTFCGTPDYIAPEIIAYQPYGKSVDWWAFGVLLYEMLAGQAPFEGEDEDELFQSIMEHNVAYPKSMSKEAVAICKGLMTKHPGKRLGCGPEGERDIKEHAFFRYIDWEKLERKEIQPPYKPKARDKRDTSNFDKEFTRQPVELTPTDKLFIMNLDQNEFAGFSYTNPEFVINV

fold change (FC) (Homo sapiens): 0.15 | inhibition [1]: 50% | fold change (FC) [2]: 0.14 | inhibition [3]: 58% | inhibition [4]: 34%
SMILES: CNC(=O)c1ccccc1Oc1nc(Nc2cc(OC)c(OC)c(OC)c2)ncc1Br

fold change (FC) [5]: 0.27 | fold change (FC) [6]: 0 | fold change (FC) [7]: 0 | fold change (FC) [8]: 0.26 | fold change (FC) [9]: 0 | fold change (FC) [10]: 0.01 | fold change (FC) [11]: 0
SMILES: CC(C)[C@H](NC(=O)c1cc(-c2cnn3cc(-c4ccc(OCCN5CCCCC5)cc4)cnc23)cs1)C(F)(F)F

fold change (FC) [12]: 0 | fold change (FC) [13]: 0
SMILES: O=C(N[C@@H](C1CC1)C(F)(F)F)c1cc(-c2cnn3cc(-c4ccc(F)cc4)cnc23)cs1
